Reference: paper PMC6923863 (BMC Pharmacology & Toxicology, 2019)

Tests used:
[1] = target: Ca^2+ Channel L-Type (Rattus norvegicus, UniProt P22002); format: binding; details: only quoted where inhibition > 15%, read-out: Percent Inhibition at 10 μM
[2] = target: T1, HCN1 K^+ Channel (Homo sapiens, UniProt O60741); test: Molecular target binding profile: patch-clamp functional assay (Eurofins Panlabs 952727); format: cell-based
T1 construct: Eurofins Panlabs Ltd., Taipei, Taiwan 952727
T1 sequence (O60741 1-890): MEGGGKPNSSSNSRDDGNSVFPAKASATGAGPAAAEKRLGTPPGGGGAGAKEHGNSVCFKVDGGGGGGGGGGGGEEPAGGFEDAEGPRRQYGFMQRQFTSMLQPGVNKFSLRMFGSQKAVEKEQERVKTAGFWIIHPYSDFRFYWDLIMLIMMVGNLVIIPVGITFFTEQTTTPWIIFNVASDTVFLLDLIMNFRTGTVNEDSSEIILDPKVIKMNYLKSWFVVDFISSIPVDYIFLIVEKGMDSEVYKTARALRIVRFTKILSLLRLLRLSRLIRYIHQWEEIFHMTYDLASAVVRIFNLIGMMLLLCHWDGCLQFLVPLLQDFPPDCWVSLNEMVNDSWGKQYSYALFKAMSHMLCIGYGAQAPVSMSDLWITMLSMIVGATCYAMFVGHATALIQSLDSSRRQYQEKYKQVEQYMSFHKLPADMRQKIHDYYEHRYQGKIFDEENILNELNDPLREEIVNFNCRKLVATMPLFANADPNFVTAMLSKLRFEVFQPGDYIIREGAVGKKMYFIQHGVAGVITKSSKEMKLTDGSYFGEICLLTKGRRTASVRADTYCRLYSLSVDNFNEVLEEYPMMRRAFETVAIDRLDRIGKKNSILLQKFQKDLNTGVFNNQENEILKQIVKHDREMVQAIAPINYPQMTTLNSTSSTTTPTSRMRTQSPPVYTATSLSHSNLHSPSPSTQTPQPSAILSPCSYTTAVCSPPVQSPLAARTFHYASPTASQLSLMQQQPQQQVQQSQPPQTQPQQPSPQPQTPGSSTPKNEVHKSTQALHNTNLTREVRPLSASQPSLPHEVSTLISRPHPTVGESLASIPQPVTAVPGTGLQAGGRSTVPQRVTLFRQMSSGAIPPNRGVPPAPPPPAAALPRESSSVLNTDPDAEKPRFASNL

[3] = system: Sprague-Dawley rats; test: Loss of righting reflex (LORR) following intravenous administration; format: in vivo, rat; details: for LORR duration, mean (SEM): 12 mg/kg IV over 30 s
[4] = system: Sprague-Dawley rats; test: Thermal sensitivity (tail flick latency) testing after bolus injection or infusion; format: in vivo, rat; details: pre-emptive analgesia, hypnotic and sub-hypnotic IV dosing regimens
[5] = system: Sprague-Dawley rats; test: Thermal tail flick latency in rats with saline or morphine osmotic minipumps (opioid tolerance); format: in vivo, rat
[6] = system: Sprague-Dawley rats; test: Pre-pulse inhibition (PPI) of acoustic startle and behavioural testing; format: in vivo, rat
[7] = system: GABAA Receptor
[8] = system: Sprague-Dawley rats; test: Behavioural dysfunction scoring in minipump rats; details: 12 mg/kg IV over 30 s

Ca^2+ Channel L-Type, sequence (P22002 whole entry): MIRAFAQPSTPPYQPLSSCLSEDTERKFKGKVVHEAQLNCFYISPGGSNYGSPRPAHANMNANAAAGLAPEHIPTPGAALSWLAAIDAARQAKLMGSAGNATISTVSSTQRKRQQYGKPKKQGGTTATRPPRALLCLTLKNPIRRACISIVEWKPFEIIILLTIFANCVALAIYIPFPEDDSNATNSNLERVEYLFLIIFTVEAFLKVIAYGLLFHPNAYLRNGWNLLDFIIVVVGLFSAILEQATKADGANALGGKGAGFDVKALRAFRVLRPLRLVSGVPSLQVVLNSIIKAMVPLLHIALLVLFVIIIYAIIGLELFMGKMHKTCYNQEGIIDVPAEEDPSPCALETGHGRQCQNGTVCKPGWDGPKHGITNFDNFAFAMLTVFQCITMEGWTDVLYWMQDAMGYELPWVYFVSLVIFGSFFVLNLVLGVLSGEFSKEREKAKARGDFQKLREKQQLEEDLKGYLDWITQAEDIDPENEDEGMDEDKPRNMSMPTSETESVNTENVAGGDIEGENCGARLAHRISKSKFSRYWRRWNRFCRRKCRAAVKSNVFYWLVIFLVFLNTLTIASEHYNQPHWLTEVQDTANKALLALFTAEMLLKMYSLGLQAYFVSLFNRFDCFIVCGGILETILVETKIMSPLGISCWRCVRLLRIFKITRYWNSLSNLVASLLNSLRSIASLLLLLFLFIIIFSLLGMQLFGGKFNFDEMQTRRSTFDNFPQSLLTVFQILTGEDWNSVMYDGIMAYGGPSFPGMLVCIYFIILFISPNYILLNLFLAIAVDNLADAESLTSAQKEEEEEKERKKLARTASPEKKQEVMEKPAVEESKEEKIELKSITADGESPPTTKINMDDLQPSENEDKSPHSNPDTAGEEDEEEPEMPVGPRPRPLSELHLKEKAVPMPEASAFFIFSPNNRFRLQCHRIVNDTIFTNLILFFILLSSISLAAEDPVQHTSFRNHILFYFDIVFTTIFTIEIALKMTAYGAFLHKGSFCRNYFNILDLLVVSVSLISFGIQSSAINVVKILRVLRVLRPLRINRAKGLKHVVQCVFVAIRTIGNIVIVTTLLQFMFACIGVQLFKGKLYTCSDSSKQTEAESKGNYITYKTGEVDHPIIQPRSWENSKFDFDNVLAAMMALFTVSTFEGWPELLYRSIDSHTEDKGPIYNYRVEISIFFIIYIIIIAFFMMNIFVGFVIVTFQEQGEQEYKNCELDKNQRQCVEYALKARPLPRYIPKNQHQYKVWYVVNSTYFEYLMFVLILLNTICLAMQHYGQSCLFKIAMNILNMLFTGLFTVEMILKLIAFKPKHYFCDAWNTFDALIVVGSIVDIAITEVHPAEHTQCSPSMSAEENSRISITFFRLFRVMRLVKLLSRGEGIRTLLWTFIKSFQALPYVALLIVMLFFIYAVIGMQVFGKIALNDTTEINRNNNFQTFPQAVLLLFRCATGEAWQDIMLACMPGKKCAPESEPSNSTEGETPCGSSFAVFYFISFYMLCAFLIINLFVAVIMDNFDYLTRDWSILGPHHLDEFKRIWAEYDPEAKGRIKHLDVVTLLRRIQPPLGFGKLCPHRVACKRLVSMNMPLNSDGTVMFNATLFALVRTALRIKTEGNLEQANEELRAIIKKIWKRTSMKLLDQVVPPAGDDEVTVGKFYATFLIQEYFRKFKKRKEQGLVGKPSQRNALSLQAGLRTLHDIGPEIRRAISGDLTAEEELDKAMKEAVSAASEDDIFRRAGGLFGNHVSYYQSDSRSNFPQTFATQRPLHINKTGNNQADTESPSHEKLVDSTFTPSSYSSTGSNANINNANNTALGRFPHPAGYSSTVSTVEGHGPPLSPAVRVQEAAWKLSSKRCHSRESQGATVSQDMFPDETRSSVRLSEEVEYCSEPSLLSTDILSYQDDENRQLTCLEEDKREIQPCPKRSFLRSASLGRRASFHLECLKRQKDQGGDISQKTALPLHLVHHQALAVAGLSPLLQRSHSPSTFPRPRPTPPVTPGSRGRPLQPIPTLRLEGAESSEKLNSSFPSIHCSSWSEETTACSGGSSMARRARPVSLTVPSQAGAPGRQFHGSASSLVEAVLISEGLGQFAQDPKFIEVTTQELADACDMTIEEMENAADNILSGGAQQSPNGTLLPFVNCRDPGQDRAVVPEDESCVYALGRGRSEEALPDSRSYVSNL

CNC1(c2ccccc2Cl)CCCCC1=O (stereo not drawn) [Ketamine]
inhibition at 10 µM [1]: 24% | IC50 [2]: > 100 µM | inhibition at 100 µM ([2]; patch-clamp assay quoted at 100 μM, not 10 μM (top dose employed), read-out: Percent Inhibition): 15% | LORR duration, mean (SEM) ([3]; rats with morphine minipump (6 mg daily), day 1): 247.0 (28.4) seconds | LORR duration, mean (SEM) ([3]; rats with morphine minipump (6 mg daily), day 6): 272.5 (12.9) seconds | LORR duration, mean (SEM) ([3]; rats with saline minipump, day 1): 189.2 (23.8) seconds | LORR duration, mean (SEM) ([3]; rats with saline minipump, day 6): 277.0 (16.9) seconds | Induction of LORR, animals affected ([3]; 12 mg/kg over 30 s, rats with saline or morphine minipumps, days one and six): all animals | ED50 ([3]; Rattus norvegicus, rats, 30 s bolus intravenous injection): 9.6 mg/kg | Duration of loss of righting, mean (SEM) ([3]; rats, 10 minute hypnotic IV infusion (KEA-1010 total 56 mg/kg; ketamine total 28 mg/kg)): 418.0 (86.4) seconds | Duration of loss of righting, mean (SEM) ([3]; rats, hypnotic IV bolus over 15 s (KEA-1010 11 mg/kg; ketamine 10 mg/kg)): 491.8 (67.7) seconds | Slope of LORR duration vs. dose curves ([3]; rats, intravenous injection over 30 s): 69.8 s/mg/kg | Thermal tail flick latency [4]: prolonged thermal tail flick latency | Thermal tail flick latency, augmentation of morphine analgesia ([5]; 12 mg/kg IV over 30 s, morphine minipump animals, day one): augmented morphine mediated analgesia | Thermal tail flick latency in opioid tolerant rats ([5]; 12 mg/kg IV over 30 s, morphine minipump rats, day six): TFL prolongation of similar magnitude to that of saline mini-pump subjects | Thermal tail flick latency ([5]; 12 mg/kg IV over 30 s, opioid-naïve rats, day one post saline minipump insertion): Prolongation of thermal tail flick | Thermal tail flick latency ([5]; 12 mg/kg IV over 30 s, saline minipump rats, day six): prolonged tail flick latency | Pre-pulse inhibition (PPI) effect ([6]; 5 minutes after IV dosing, ketamine 10 mg/kg, KEA-1010 11 mg/kg, KEA-1037 10 mg/kg): disrupted the PPI effect | Percent PPI or startle amplitude ([6]; 30 min after drug administration): No statistically significant differences | Ataxia ([6]; behavioural testing post dosing, ketamine 10 mg/kg, KEA-1010 11 mg/kg, KEA-1037 10 mg/kg IV): greater ataxia at 23 and 48 min post dosing compared with vehicle | Percent Inhibition at 10 μM ([7]; 10 μM, only quoted where inhibition > 15%): − (Percent Inhibition at 10 μM only quoted where inhibition > 15%) | IC50 ([7]; radioligand binding): > 10 µM | Time of gradual return to normal behavioural patterns ([8]; minipump rats): 40 to 50 min | Time of maximal behavioural dysfunction ([8]; minipump rats): 5 min | Behavioural dysfunction score / behavioural aberration ([8]; saline or morphine minipump rats, days one and six): profound behavioural aberration

CN1CC[C@]23c4c5ccc(O)c4O[C@H]2[C@@H](O)C=C[C@H]3[C@H]1C5 [morphine]
Thermal tail flick latency compared with vehicle treated animals ([5]; 24 h of continuous morphine treatment via minipump (6 mg daily)): significant antinociception | Time to development of tolerance to thermal tail flick stimuli ([5]; continuous subcutaneous pump administration of morphine (6 mg/day) in rats): 3 to 4 days
